Source: article PMC4076210, “Discovery of Novel AKT Inhibitors with Enhanced Anti-Tumor Effects in Combination with the MEK Inhibitor” (PLoS ONE, 2014)
Like-named read-outs stand apart in the source and are kept apart here.

Key:
Assay in all cases: Kinase panel
Format in all cases: biochemical
[1] = target: T1, NLK(h) (Homo sapiens, UniProt Q9UBE8)
T1 construct: purchased Millipore KinaseProfiler
T1 sequence (Q9UBE8 1-527): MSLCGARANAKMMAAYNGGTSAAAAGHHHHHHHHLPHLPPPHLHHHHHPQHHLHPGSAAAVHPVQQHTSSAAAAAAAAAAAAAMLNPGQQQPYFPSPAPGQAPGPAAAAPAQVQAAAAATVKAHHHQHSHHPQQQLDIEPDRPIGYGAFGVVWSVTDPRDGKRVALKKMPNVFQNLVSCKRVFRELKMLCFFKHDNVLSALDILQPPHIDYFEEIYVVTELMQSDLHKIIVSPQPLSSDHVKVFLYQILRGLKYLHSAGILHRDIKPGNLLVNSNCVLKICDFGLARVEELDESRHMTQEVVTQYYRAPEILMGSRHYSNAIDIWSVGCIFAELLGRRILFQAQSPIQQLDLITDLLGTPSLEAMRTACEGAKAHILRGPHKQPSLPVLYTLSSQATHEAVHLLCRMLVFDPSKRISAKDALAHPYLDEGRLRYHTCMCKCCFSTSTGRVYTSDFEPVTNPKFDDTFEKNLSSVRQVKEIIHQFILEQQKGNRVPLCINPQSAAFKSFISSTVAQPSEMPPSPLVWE

[2] = target: T2, EphA2(h) (Homo sapiens, UniProt P29317)
T2 construct: purchased Millipore KinaseProfiler
T2 sequence (P29317 24-976): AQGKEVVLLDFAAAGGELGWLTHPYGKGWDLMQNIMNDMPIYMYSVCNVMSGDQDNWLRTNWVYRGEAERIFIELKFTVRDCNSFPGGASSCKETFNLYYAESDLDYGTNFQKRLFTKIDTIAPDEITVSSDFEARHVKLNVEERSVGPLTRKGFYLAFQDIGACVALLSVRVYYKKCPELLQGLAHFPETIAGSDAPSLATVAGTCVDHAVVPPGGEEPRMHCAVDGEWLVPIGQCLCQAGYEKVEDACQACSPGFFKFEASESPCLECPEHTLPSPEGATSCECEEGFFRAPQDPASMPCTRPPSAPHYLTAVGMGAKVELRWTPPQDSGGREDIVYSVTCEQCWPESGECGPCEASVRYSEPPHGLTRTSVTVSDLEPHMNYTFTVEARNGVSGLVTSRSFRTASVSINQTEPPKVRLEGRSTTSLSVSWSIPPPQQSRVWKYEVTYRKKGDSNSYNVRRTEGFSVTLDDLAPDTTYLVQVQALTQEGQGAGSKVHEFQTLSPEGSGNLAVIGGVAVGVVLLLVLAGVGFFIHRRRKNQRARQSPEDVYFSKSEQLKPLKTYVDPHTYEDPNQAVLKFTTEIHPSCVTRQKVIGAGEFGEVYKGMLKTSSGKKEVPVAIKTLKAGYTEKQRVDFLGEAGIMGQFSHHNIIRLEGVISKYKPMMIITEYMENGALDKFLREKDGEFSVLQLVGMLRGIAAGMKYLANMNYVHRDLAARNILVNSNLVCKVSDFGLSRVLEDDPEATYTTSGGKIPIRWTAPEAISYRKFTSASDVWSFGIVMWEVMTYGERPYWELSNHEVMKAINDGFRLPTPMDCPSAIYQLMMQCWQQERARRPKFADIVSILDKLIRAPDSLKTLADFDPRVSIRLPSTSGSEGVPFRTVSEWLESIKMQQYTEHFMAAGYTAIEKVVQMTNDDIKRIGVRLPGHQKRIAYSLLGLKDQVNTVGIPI

[3] = target: T3, GSK3α(h) (Homo sapiens, UniProt P49840)
T3 construct: purchased Millipore KinaseProfiler
T3 sequence (P49840 whole entry): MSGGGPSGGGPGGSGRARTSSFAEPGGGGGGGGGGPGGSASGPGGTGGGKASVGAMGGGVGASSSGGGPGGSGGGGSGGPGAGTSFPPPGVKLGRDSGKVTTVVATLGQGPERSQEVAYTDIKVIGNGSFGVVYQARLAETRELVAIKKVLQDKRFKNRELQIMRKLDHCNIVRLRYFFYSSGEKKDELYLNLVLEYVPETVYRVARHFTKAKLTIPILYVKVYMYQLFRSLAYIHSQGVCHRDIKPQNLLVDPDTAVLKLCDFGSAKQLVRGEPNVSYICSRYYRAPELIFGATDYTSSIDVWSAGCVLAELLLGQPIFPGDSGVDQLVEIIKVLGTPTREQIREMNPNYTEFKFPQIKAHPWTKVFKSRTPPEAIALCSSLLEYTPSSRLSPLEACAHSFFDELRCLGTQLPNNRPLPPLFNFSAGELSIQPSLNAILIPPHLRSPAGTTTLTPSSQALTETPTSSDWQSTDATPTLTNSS

[4] = target: T4, SAPK2b(h) (Homo sapiens, UniProt Q15759)
T4 construct: purchased Millipore KinaseProfiler
T4 sequence (Q15759 whole entry): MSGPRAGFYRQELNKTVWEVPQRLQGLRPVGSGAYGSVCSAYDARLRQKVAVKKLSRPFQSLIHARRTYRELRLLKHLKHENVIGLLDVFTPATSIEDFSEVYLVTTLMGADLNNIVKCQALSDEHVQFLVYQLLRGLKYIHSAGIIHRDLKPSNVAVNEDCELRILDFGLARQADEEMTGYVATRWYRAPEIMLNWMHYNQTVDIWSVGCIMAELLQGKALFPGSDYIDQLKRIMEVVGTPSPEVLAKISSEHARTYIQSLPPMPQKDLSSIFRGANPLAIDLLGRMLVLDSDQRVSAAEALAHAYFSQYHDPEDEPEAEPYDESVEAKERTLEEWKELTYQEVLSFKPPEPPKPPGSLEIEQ

[5] = target: T5, DMPK(h) (Homo sapiens, UniProt Q09013)
T5 construct: purchased Millipore KinaseProfiler
T5 sequence (Q09013 1-629): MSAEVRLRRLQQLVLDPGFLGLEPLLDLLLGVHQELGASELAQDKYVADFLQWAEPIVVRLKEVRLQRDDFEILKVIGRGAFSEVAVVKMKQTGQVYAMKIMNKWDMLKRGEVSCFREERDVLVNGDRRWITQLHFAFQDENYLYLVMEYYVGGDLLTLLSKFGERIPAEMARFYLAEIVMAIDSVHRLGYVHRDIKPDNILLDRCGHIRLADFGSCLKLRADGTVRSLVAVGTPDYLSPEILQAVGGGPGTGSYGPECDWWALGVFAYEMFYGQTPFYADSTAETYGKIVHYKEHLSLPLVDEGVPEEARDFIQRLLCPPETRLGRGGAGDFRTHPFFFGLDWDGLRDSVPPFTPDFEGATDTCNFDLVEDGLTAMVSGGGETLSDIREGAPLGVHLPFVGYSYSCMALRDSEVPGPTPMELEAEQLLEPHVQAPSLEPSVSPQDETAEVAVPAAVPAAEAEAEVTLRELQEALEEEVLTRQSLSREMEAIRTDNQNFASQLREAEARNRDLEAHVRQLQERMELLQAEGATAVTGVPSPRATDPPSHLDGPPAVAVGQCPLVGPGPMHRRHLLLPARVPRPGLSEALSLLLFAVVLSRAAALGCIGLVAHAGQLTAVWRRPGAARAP

[6] = target: T6, Flt3(D835Y)(h) (Homo sapiens, UniProt P36888, D835Y)
T6 construct: purchased Millipore KinaseProfiler
T6 sequence (P36888 27-993 D835Y): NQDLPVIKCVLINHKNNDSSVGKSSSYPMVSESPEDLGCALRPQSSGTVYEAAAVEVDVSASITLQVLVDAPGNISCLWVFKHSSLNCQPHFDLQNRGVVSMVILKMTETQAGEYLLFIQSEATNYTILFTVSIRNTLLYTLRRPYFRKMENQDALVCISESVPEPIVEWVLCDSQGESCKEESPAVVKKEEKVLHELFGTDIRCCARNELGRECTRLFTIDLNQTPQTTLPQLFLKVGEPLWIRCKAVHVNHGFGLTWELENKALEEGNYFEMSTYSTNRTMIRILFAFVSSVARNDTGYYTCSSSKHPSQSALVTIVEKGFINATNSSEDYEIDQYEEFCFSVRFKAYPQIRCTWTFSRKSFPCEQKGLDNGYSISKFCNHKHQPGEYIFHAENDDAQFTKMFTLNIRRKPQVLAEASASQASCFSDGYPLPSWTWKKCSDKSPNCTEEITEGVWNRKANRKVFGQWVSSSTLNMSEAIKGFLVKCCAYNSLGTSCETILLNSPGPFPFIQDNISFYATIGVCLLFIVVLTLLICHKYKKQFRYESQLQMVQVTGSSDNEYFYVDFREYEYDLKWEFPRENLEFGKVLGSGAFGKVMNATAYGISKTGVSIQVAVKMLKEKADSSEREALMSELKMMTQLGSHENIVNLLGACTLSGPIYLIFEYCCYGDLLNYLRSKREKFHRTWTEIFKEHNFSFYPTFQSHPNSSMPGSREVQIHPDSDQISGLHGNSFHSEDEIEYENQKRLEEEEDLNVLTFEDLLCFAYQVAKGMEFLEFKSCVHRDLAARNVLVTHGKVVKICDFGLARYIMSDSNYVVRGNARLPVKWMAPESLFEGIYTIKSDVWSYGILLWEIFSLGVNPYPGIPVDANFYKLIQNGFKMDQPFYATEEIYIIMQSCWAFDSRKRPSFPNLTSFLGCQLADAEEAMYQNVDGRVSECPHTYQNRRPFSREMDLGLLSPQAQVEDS

[7] = target: T7, CDK1/cyclinB(h) (Homo sapiens, UniProt P06493)
T7 construct: purchased Millipore KinaseProfiler
T7 sequence (P06493 whole entry): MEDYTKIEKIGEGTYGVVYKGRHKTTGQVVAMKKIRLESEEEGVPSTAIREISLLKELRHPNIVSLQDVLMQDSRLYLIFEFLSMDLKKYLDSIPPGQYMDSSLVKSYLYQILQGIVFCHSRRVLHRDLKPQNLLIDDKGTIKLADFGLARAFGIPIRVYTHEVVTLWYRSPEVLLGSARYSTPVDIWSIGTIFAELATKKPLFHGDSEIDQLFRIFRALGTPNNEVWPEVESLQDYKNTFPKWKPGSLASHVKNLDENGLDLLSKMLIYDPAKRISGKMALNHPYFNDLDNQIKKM
T7 sequence (P14635 whole entry partner): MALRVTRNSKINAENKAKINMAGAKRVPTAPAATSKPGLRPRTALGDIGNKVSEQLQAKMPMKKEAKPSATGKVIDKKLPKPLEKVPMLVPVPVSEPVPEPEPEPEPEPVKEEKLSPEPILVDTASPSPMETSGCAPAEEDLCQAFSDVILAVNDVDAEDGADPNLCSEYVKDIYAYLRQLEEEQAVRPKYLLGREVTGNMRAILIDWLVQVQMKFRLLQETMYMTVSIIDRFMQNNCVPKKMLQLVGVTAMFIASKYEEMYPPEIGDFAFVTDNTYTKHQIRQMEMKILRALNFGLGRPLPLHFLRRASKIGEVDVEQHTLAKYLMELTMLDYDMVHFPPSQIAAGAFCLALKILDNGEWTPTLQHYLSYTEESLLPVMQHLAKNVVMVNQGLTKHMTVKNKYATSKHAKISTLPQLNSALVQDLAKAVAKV

[8] = target: T8, MKK6(h) (Homo sapiens, UniProt P52564)
T8 construct: purchased Millipore KinaseProfiler
T8 sequence (P52564 1-334): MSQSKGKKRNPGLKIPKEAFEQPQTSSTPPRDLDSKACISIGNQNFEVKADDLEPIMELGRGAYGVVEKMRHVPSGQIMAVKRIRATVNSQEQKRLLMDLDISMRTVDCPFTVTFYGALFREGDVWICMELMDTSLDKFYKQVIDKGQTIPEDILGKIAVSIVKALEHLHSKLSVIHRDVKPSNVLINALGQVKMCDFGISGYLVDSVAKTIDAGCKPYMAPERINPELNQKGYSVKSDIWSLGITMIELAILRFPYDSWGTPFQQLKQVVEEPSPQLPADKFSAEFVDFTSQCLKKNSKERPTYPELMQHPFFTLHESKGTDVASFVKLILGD

[9] = target: T9, HIPK3(h) (Homo sapiens, UniProt Q9H422)
T9 construct: purchased Millipore KinaseProfiler
T9 sequence (Q9H422 whole entry): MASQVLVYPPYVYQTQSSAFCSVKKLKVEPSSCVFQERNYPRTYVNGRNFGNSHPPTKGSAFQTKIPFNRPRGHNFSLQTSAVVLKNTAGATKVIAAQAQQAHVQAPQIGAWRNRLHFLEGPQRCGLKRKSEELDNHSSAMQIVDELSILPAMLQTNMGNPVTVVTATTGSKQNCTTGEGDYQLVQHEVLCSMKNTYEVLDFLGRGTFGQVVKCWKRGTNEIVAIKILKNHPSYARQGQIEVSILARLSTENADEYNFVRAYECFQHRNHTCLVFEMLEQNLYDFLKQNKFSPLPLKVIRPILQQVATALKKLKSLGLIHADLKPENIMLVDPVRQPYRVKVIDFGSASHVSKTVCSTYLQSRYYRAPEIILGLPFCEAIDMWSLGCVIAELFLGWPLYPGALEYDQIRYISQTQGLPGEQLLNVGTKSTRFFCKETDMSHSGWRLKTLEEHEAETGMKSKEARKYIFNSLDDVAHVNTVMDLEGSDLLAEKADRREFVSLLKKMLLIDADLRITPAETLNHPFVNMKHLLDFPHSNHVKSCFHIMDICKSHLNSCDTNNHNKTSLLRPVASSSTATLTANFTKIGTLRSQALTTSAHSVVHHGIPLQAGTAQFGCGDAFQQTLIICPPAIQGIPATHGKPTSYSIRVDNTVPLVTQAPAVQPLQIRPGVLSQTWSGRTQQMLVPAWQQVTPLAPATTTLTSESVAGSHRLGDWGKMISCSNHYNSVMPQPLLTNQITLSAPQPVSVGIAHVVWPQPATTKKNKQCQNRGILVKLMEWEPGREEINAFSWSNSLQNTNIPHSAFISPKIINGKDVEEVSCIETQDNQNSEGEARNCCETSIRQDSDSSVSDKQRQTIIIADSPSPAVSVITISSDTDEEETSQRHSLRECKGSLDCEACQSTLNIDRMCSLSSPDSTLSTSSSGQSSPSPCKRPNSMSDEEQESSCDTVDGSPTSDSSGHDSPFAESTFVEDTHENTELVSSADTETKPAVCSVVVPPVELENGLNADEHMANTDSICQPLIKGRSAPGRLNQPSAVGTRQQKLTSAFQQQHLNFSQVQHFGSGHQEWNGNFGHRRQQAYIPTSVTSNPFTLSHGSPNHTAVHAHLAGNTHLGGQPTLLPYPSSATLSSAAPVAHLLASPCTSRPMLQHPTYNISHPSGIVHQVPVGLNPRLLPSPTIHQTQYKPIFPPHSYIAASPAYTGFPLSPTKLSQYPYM

Cn1ncc(Cl)c1-c1cc(C(=O)N[C@H](CN)Cc2cccc(F)c2)sc1Cl [GSK2110183]
inhibition at 0.5 µM [1]: -8% | inhibition at 10 µM [1]: 32% | inhibition at 0.5 µM [2]: -17% | inhibition at 10 µM [2]: -4% | inhibition at 0.5 µM [3]: -2% | inhibition at 10 µM [3]: -1% | inhibition at 0.5 µM [4]: -8% | inhibition at 10 µM [4]: -13% | inhibition at 0.5 µM [5]: -8% | inhibition at 10 µM [5]: 1% | inhibition at 0.5 µM [6]: 12% | inhibition at 10 µM [6]: 71% | inhibition at 0.5 µM [7]: -3% | inhibition at 10 µM [7]: 7% | inhibition at 0.5 µM [8]: 6% | inhibition at 10 µM [8]: 36% | inhibition at 0.5 µM [9]: -3% | inhibition at 10 µM [9]: 72%

Cn1ncc(Cl)c1-c1cc(C(=O)N[C@H](CN)Cc2ccc(F)c(F)c2)oc1Cl [GSK2141795]
inhibition at 0.5 µM ([1]; 0.5 µM, read-out: % Inhibition): 4% | inhibition at 10 µM ([1]; 10 µM, read-out: % Inhibition): 46% | inhibition at 0.5 µM ([2]; 0.5 µM, read-out: % Inhibition): 25% | inhibition at 10 µM ([2]; 10 µM, read-out: % Inhibition): 39% | inhibition at 0.5 µM ([3]; 0.5 µM, read-out: % Inhibition): -26% | inhibition at 10 µM ([3]; 10 µM, read-out: % Inhibition): -19% | inhibition at 0.5 µM ([4]; 0.5 µM, read-out: % Inhibition): -17% | inhibition at 10 µM ([4]; 10 µM, read-out: % Inhibition): -9% | inhibition at 0.5 µM ([5]; 0.5 µM, read-out: % Inhibition): -12% | inhibition at 10 µM ([5]; 10 µM, read-out: % Inhibition): -5% | inhibition at 0.5 µM ([6]; 0.5 µM, read-out: % Inhibition): 6% | inhibition at 10 µM ([6]; 10 µM, read-out: % Inhibition): 81% | inhibition at 0.5 µM ([7]; 0.5 µM, read-out: % Inhibition): -5% | inhibition at 10 µM ([7]; 10 µM, read-out: % Inhibition): 12% | inhibition at 0.5 µM ([8]; 0.5 µM, read-out: % Inhibition): 14% | inhibition at 10 µM ([8]; 10 µM, read-out: % Inhibition): 66% | inhibition at 0.5 µM ([9]; 0.5 µM, read-out: % Inhibition): 7% | inhibition at 10 µM ([9]; 10 µM, read-out: % Inhibition): 63%
